According to ChEMBL document CHEMBL5380837, “Structure-Activity Relationships of Truncated 1'-Homologated Carbaadenosine Derivatives as New PPARγ/δ Ligands: A Study on Sugar Puckering Affecting Binding to PPARs” (J Med Chem, 2023):

Experiments:
[1] = target: T1, Peroxisome proliferator-activated receptor alpha (Homo sapiens) (UniProt Q07869); test: Binding affinity to PPARalpha (unknown origin) at 30 uM by TR-FRET based LanthaScreen competitive binding assay relative to control
T1 sequence (whole entry): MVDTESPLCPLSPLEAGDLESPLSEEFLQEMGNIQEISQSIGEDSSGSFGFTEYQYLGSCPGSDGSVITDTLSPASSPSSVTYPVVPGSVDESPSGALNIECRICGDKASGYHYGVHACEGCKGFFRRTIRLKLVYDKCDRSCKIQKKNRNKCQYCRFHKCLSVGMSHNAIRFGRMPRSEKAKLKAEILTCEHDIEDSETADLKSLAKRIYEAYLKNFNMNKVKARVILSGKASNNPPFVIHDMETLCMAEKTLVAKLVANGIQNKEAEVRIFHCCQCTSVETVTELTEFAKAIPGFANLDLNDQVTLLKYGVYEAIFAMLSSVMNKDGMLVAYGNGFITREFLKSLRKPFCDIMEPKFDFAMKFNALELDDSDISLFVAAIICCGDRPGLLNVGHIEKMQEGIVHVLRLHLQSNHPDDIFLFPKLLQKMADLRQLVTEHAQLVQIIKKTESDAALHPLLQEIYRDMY

[2] = target: T2, Peroxisome proliferator-activated receptor delta (Homo sapiens, UniProt Q03181); test: Binding affinity to PPARdelta (unknown origin) assessed as inhibition constant by TR-FRET based LanthaScreen competitive binding assay
T2 sequence (Q03181 whole entry): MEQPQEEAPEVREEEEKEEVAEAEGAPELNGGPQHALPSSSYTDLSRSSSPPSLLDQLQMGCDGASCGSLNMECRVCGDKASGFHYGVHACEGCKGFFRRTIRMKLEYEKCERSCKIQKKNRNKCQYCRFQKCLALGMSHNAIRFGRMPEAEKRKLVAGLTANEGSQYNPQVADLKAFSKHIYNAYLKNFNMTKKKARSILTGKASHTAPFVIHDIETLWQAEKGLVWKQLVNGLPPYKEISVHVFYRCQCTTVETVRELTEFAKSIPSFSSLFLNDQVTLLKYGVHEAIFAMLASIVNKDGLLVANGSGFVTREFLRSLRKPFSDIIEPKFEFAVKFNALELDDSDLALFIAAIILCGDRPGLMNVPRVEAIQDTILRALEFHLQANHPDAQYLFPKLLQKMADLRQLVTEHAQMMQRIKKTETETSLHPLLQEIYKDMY

[3] = target: T3, Peroxisome proliferator-activated receptor delta (Homo sapiens) (UniProt Q03181); test: Binding affinity to PPARdelta (unknown origin) at 30 uM by TR-FRET based LanthaScreen competitive binding assay relative to control
T3 sequence (whole entry): T2 sequence (Q03181 whole entry)

[4] = target: T2, Peroxisome proliferator-activated receptor delta; test: Antagonist activity at PPARdelta LBD (unknown origin) assessed as increase in fluorescein labeled SMRT-ID2 corepressor peptide requirement by TR-FRET assay
[5] = target: T4, Peroxisome proliferator-activated receptor gamma (Homo sapiens, UniProt P37231); test: Binding affinity to PPARgamma (unknown origin) assessed as inhibition constant by TR-FRET based LanthaScreen competitive binding assay
T4 sequence (P37231 whole entry): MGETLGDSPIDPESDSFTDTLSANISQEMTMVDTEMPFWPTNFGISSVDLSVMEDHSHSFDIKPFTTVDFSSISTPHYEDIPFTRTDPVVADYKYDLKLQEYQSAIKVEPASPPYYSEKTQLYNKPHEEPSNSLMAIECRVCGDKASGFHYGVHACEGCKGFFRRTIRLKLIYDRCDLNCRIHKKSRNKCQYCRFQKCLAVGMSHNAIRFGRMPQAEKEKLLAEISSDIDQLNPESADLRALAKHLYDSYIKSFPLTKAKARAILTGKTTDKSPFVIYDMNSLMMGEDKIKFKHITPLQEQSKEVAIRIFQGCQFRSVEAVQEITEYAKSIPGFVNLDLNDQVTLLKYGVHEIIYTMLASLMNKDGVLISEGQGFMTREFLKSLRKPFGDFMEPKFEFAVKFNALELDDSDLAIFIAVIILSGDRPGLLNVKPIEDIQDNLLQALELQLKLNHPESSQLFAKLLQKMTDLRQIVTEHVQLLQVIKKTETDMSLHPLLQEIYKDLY

| Activity [1] [%] | Activity [3] [%] | Structure (SMILES) | also measured |
| --- | --- | --- | --- |
| 9.2 |  | COc1cccc(CNc2nc(Cl)nc3c2ncn3C[C@H]2[C@H](O)[C@H](O)[C@@H]3C[C@H]23)c1 | Ki [2]: 292 nM |
| 3.8 |  | O[C@@H]1[C@H](O)[C@@H]2C[C@@H]2[C@H]1Cn1cnc2c(NCc3cccc(Cl)c3)nc(Cl)nc21 | Ki [2]: 978 nM |
| 4 | 2 | O[C@H]1[C@H](Cn2cnc3c(NCc4cccc(Cl)c4)ncnc32)CC[C@H]1O |  |
| 7.1 | 0.8 | O[C@@H]1[C@H](O)[C@@H]2C[C@@H]2[C@H]1Cn1cnc2c(NCc3cccc(F)c3)ncnc21 |  |
| 6.5 | 37 | O[C@H]1[C@H](Cn2cnc3c(NCc4cccc(F)c4)nc(Cl)nc32)CC[C@H]1O |  |
| 8.3 | 20 | O[C@@H]1[C@H](O)[C@@H]2C[C@@H]2[C@H]1Cn1cnc2c(NCc3cccc(Br)c3)ncnc21 |  |
| 2.7 |  | O[C@@H]1[C@H](O)[C@@H]2C[C@@H]2[C@H]1Cn1cnc2c(NCc3ccc(I)cc3)nc(Cl)nc21 | Ki [2]: 1150 nM |
| 0.7 | 4.2 | O[C@@H]1[C@H](O)C=C[C@H]1Cn1cnc2c(NCc3cccc(Br)c3)ncnc21 |  |
| 6.4 |  | COC(=O)c1sccc1S(=O)(=O)Nc1ccc(Nc2ccccc2)cc1OC |  |
| 7 | 28.4 | O[C@@H]1[C@H](O)C=C[C@H]1Cn1cnc2c(NCc3cccc(F)c3)nc(Cl)nc21 |  |
| 63 | 4.8 | O[C@H]1[C@H](Cn2cnc3c(NCc4cccc(F)c4)ncnc32)CC[C@H]1O |  |
| 5.2 | 2.4 | O[C@@H]1[C@H](O)C=C[C@H]1Cn1cnc2c(NCc3cccc(F)c3)ncnc21 |  |
| 5.1 |  | O[C@H]1[C@H](Cn2cnc3c(NCc4cccc(Cl)c4)nc(Cl)nc32)CC[C@H]1O | Ki [2]: 1620 nM |
| 0.3 |  | O[C@@H]1[C@H](O)CO[C@H]1Cn1cnc2c(NCc3cccc(Br)c3)nc(Cl)nc21 | EC50 [4]: 26400 nM; Ki [2]: 374 nM; Ki [5]: 3600 nM |
| 4.1 | 7.3 | O[C@@H]1[C@H](O)C=C[C@H]1Cn1cnc2c(NCc3cccc(I)c3)ncnc21 |  |
| 6.9 | 2 | O[C@@H]1C[C@@H]2C[C@]2(Cn2cnc3c(NCc4cccc(Cl)c4)ncnc32)[C@@H]1O |  |
| 1.7 | 11.9 | O[C@@H]1C[C@@H]2C[C@]2(Cn2cnc3c(NCc4cccc(F)c4)nc(Cl)nc32)[C@@H]1O |  |
| 3.6 |  | O[C@@H]1[C@H](O)[C@@H]2C[C@@H]2[C@H]1Cn1cnc2c(NCc3cccc(F)c3)nc(Cl)nc21 | Activity ([3]; filed as antagonist): 46.3% |
| 4.6 |  | O[C@@H]1[C@H](O)[C@@H]2C[C@@H]2[C@H]1Cn1cnc2c(NCc3cccc(I)c3)ncnc21 | Activity ([3]; filed as antagonist): 45.8% |
| 34.9 |  | Cc1cc(SCc2sc(-c3ccc(C(F)(F)F)cc3)nc2C)ccc1OCC(=O)O |  |
| 5.3 | 39.4 | O[C@H]1[C@H](Cn2cnc3c(NCc4cccc(I)c4)ncnc32)CC[C@H]1O |  |
| 2.7 | 7.4 | O[C@@H]1C[C@@H]2C[C@]2(Cn2cnc3c(NCc4cccc(F)c4)ncnc32)[C@@H]1O |  |
| 6 | 13.4 | O[C@@H]1[C@H](O)[C@@H]2C[C@@H]2[C@H]1Cn1cnc2c(NCc3cccc(Cl)c3)ncnc21 |  |
| 4 |  | O[C@@H]1[C@H](O)C=C[C@H]1Cn1cnc2c(NCc3cccc(Cl)c3)nc(Cl)nc21 | Ki [2]: 2490 nM |
| 3.8 | 34.6 | O[C@@H]1[C@H](O)[C@@H]2C[C@@H]2[C@H]1Cn1cnc2c(NCc3ccccc3I)nc(Cl)nc21 | Ki [5]: 2300 nM |
| 0.8 | 5.9 | O[C@@H]1[C@H](O)C=C[C@H]1Cn1cnc2c(NCc3cccc(Cl)c3)ncnc21 |  |
| 6.6 | 12.9 | O[C@H]1[C@H](Cn2cnc3c(NCc4cccc(Br)c4)ncnc32)CC[C@H]1O |  |
| 9.4 | 8.6 | O[C@@H]1C[C@@H]2C[C@]2(Cn2cnc3c(NCc4cccc(I)c4)ncnc32)[C@@H]1O |  |
| 5.6 | 9.2 | O[C@@H]1C[C@@H]2C[C@]2(Cn2cnc3c(NCc4cccc(Br)c4)ncnc32)[C@@H]1O |  |
